Experimental data from patent publication US8859580B2 (Boehringer Ingelheim International GmbH, priority 2007, dated 2014).

These compounds were tested against T1, 11β-HSD1 (Homo sapiens, UniProt P28845) (assay: In vitro inhibition of 11β-HSD1, HTRF detection of cortisol generated from cortisone by human liver microsomes). Settings: 11β-HSD IC50 (nM), 1 hour at 37° C., pH 6.0, NADPH 200 μM, cortisone 80 nM, inhibition relative to carbenoxolone signal.
T1 construct: detecting cortisol generated from cortisterone by human liver microsomes; from tissue; host or cells: human liver microsomes
T1 sequence (P28845 whole entry): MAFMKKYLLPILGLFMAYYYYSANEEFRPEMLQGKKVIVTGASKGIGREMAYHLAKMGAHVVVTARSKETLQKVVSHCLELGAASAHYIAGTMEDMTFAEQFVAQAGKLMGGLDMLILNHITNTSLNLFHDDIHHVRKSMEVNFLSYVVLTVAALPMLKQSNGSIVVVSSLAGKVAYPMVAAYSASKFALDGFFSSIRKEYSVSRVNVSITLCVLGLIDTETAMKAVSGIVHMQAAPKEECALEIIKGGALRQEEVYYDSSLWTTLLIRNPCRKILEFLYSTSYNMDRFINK
Assay type: biochemical
Procedure, shortened: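 Inhibition expressed against the carbenoxolone signal and fitted to IC50 curves. Readout: HTRF competition between microsomal cortisol and XL665-labelled cortisol for Eu-cryptate anti-cortisol antibody (typically 2 h), with emission ratio 665/615 calibrated to cortisol concentration.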
Work on CC12CCN(C(=O)c3ccc4nc[nH]c4c3)C(Cc3cc(NS(C)(=O)=O)ccc31)C2(C)C (centres unmarked) [Example 181, N-[3-(3H-Benzoimidazole-5-carbonyl)-6,11,11-trimethyl-1,2,3,4,5,6-hexahydro-2,6-methano-benzo[d]azocin-9-yl]-methanesulfonamide] yielded an IC50 of 147 nM.
CC1(C)C2CCN(C(=O)c3ccc4nc[nH]c4c3)C1Cc1c(O)cccc12 (centres unmarked) [Example 183, (3H-Benzoimidazol-5-yl)-(10-hydroxy-11,11-dimethyl-1,2,5,6-tetrahydro-4H-2,6-methano-benzo[d]azocin-3-yl)-methanone] was tested, and the IC50 was 155 nM.
CC1CN(Cc2ccc(C(=O)N3CC[C@@]4(C)c5cccc(O)c5C[C@@H]3C4(C)C)cc2)CC(C)O1 (stereo partly drawn) [Example 184, [4-(2,6-Dimethyl-morpholin-4-ylmethyl)-phenyl]-[(2R,6S)-10-hydroxy-6,11,11-trimethyl-1,2,5,6-tetrahydro-4H-2,6-methano-benzo[d]azocin-3-yl]-methanone] was tested, and the IC50 was 1150 nM.
CC1(O)CCN(Cc2ccc(C(=O)N3CC[C@@]4(C)c5cccc(O)c5C[C@@H]3C4(C)C)cc2)CC1 [Example 185, [4-(4-Hydroxy-4-methyl-piperidin-1-ylmethyl)-phenyl]-[(2R,6S)-10-hydroxy-6,11,11-trimethyl-1,2,5,6-tetrahydro-4H-2,6 methano-benzo[d]azocin-3-yl]-methanone] showed an IC50 of 5370 nM.
CC1(C)[C@H]2Cc3c(O)cccc3[C@]1(C)CCN2C(=O)c1ccc(CN2CC(O)C2)cc1 [Example 187, [4-(3-Hydroxy-azetidin-1-ylmethyl)-phenyl]-[(2R,6S)-10-hydroxy-6,11,11-trimethyl-1,2,5,6-tetrahydro-4H-2,6-methano-benzo[d]azocin-3-yl]-methanone] showed an IC50 of 1960 nM.
Work on CC1(C)[C@H]2Cc3c(O)cccc3[C@]1(C)CCN2C(=O)c1ccc(CN2CCC(O)C2)cc1 (stereo partly drawn) [Example 188, [4-(3-Hydroxy-pyrrolidin-1-ylmethyl)-phenyl]-[(2R,6S)-10-hydroxy-6,11,11-trimethyl-1,2,5,6-tetrahydro-4H-2,6-methano-benzo[d]azocin-3-yl]-methanone] yielded an IC50 of 2920 nM.
Work on COC1CCN(Cc2ccc(C(=O)N3CC[C@@]4(C)c5cccc(O)c5C[C@@H]3C4(C)C)cc2)CC1 [Example 189, [(2R,6S)-10-Hydroxy-6,11,11-trimethyl-1,2,5,6-tetrahydro-4H-2,6-methano-benzo[d]azocin-3-yl]-[4-(4-methoxy-piperidin-1-ylmethyl)-phenyl]-methanone] yielded an IC50 of 2270 nM.
Work on CC1(C)[C@H]2Cc3c(O)cccc3[C@]1(C)CCN2C(=O)c1ccc(CN2CCC(O)CC2)cc1 [Example 190, [4-(4-Hydroxy-piperidin-1-ylmethyl)-phenyl]-[(2R,6S)-10-hydroxy-6,11,11-trimethyl-1,2,5,6-tetrahydro-4H-2,6-methano-benzo[d]azocin-3-yl]-methanone] yielded an IC50 of 1650 nM.
In the case of CC1(C)[C@H]2Cc3c(ccc4[nH]cnc34)[C@]1(C)CCN2C(=O)c1ccc2nc[nH]c2c1 [Example 191, (3H-Benzoimidazol-5-yl)-[(5R,9S)-4,5,6,7,8,9-hexahydro-2,10,12,12-trimethyl-5,9-methano-1H-imidazo[5,4-j][3]benzazocin-6-yl]-methanone], the IC50 was 571 nM.
With CC1(C)[C@H]2Cc3c(O)cccc3[C@]1(C)CCN2C(=O)c1n[nH]c2ccccc12 [Example 192, [(2R,6S)-10-Hydroxy-6,11,11-trimethyl-1,2,5,6-tetrahydro-4H-2,6-methano-benzo[d]azocin-3-yl]-(1H-indazol-3-yl)-methanone] the IC50 was 434 nM.
With CC1(C)[C@H]2Cc3c(O)cccc3[C@]1(C)CCN2C(=O)c1c[nH]c2ccc(F)cc12 [Example 193, (5-Fluoro-1H-indol-3-yl)-[(2R,6S)-10-hydroxy-6,11,11-trimethyl-1,2,5,6-tetrahydro-4H-2,6-methano-benzo[d]azocin-3-yl]-methanone] the IC50 was 360 nM.
For Cn1nc(C(=O)N2CC[C@@]3(C)c4cccc(O)c4C[C@@H]2C3(C)C)c2ccccc21 [Example 194, [(2R,6S)-10-Hydroxy-6,11,11-trimethyl-1,2,5,6-tetrahydro-4H-2,6-methano-benzo[d]azocin-3-yl]-(1-methyl-1H-indazol-3-yl)-methanone], the IC50 was 642 nM.
With COc1cccc2[nH]cc(C(=O)N3CC[C@@]4(C)c5cccc(O)c5C[C@@H]3C4(C)C)c12 [Example 195, [(2R,6S)-10-Hydroxy-6,11,11-trimethyl-1,2,5,6-tetrahydro-4H-2,6-methano-benzo[d]azocin-3-yl]-(4-methoxy-1H-indol-3-yl)-methanone] the IC50 was 2480 nM.
With CC1(C)[C@H]2Cc3c(O)cccc3[C@]1(C)CCN2C(=O)c1c[nH]c2ccc(Cl)cc12 [Example 196, (5-Chloro-1H-indol-3-yl)-[(2R,6S)-10-hydroxy-6,11,11-trimethyl-1,2,5,6-tetrahydro-4H-2,6-methano-benzo[d]azocin-3-yl]-methanone] the IC50 was 781 nM.
In the case of Cc1[nH]c2ccccc2c1C(=O)N1CC[C@@]2(C)c3cccc(O)c3C[C@@H]1C2(C)C [Example 197, [(2R,6S)-10-Hydroxy-6,11,11-trimethyl-1,2,5,6-tetrahydro-4H-2,6-methano-benzo[d]azocin-3-yl]-(2-methyl-1H-indol-3-yl)-methanone], the IC50 was 3830 nM.
With CC1(C)[C@H]2Cc3c(O)cccc3[C@]1(C)CCN2C(=O)c1coc2ccccc12 [Example 198, Benzofuran-3-yl-[(2R,6S)-10-hydroxy-6,11,11-trimethyl-1,2,5,6-tetrahydro-4H-2,6-methano-benzo[d]azocin-3-yl]-methanone] the IC50 was 435 nM.
Cn1cc(C(=O)N2CC[C@@]3(C)c4cccc(O)c4C[C@@H]2C3(C)C)c2ccccc21 [Example 199, [(2R,6S)-10-Hydroxy-6,11,11-trimethyl-1,2,5,6-tetrahydro-4H-2,6-methano-benzo[d]azocin-3-yl]-(1-methyl-1H-indol-3-yl)-methanone] was tested, and the IC50 was 137 nM.
CN(C)S(=O)(=O)c1ccc2c(c1)[C@]1(C)CCN(C(=O)c3ccc4nc[nH]c4c3)[C@H](C2)C1(C)C [Example 201, (2R,6S)-3-(3H-Benzoimidazole-5-carbonyl)-6,11,11-trimethyl-1,2,3,4,5,6-hexahydro-2,6-methano-benzo[d]azocine-8-sulfonic acid dimethylamide] showed an IC50 of 53 nM.
CNS(=O)(=O)c1ccc2c(c1)[C@]1(C)CCN(C(=O)c3ccc4nc[nH]c4c3)[C@H](C2)C1(C)C [Example 202, (2R,6S)-3-(3H-Benzoimidazole-5-carbonyl)-6,11,11-trimethyl-1,2,3,4,5,6-hexahydro-2,6-methano-benzo[d]azocine-8-sulfonic acid methylamide] gave an IC50 of 66 nM.
With CC1(C)[C@H]2Cc3ccc(S(N)(=O)=O)cc3[C@]1(C)CCN2C(=O)c1ccc2nc[nH]c2c1 [Example 203, (2R,6S)-3-(3H-Benzoimidazole-5-carbonyl)-6,11,11-trimethyl-1,2,3,4,5,6-hexahydro-2,6-methano-benzo[d]azocine-8-sulfonic acid amide] the IC50 was 125 nM.
CC(=O)c1ccc2c(c1)[C@]1(C)CCN(C(=O)c3ccc4nc[nH]c4c3)[C@H](C2)C1(C)C [Example 204, 1-[(2R,6S)-3-(3H-Benzoimidazole-5-carbonyl)-6,11,11-trimethyl-1,2,3,4,5,6-hexahydro-2,6-methano-benzo[d]azocin-8-yl]-ethanone] was tested, and the IC50 was 27 nM.
Work on CC(=O)c1ccc2c(c1)C[C@H]1N(C(=O)c3ccc4nc[nH]c4c3)CC[C@]2(C)C1(C)C [Example 205, 1-[(2R,6S)-3-(3H-Benzoimidazole-5-carbonyl)-6,11,11-trimethyl-1,2,3,4,5,6-hexahydro-2,6-methano-benzo[d]azocin-9-ayl]-ethanone] yielded an IC50 of 38 nM.
CC1(C)[C@H]2Cc3cc(C#N)ccc3[C@]1(C)CCN2C(=O)c1ccc2nc[nH]c2c1 [Example 206, (2R,6S)-3-(3H-Benzoimidazole-5-carbonyl)-6,11,11-trimethyl-1,2,3,4,5,6-hexahydro-2,6-methano-benzo[d]azocine-9-carbonitrile] was tested, and the IC50 was 47 nM.
Work on CC1(C)[C@H]2Cc3c(O)cccc3[C@]1(C)CCN2C(=O)c1ccc(CN2CCOCC2=O)cc1 [Example 207, 4-[(2R,6S)-4-(10-Hydroxy-6,11,11-trimethyl 1,2,5,6-tetrahydro-4H-2,6-methano-benzo[d]azocine-3-carbonyl)-benzyl]-morpholin-3-one] yielded an IC50 of 224 nM.
With CN(C(=O)c1ccc(C(=O)N2CC[C@@]3(C)c4cccc(O)c4C[C@@H]2C3(C)C)cc1)c1ccccc1 [Example 208, 4-[(2R,6S)-10-Hydroxy-6,11,11-trimethyl-1,2,5,6-tetrahydro-4H-2,6-methano-benzo[d]azocine-3-carbonyl]-N-methyl-N-phenyl-benzamide] the IC50 was 238 nM.
In the case of CC(O)c1ccc2c(c1)C[C@H]1N(C(=O)c3ccc4nc[nH]c4c3)CC[C@]2(C)C1(C)C (stereo partly drawn) [Example 209, (3H-Benzoimidazol-5-yl)-[(2R,6S)-9-(1-hydroxy-ethyl)-6,11,11-trimethyl-1,2,5,6-tetrahydro-4H-2,6-methano-benzo[d]azocin-3-yl]-methanone], the IC50 was 40 nM.
Work on Cc1cc2nc[nH]c2cc1C(=O)N1CC[C@@]2(C)c3cccc(O)c3C[C@@H]1C2(C)C [Example 210, [(2R,6S)-10-Hydroxy-6,11,11-trimethyl-1,2,5,6-tetrahydro-4H-2,6-methano-benzo[d]azocin-3-yl]-(6-methyl-3H-benzoimidazol-5-yl)-methanone] yielded an IC50 of 68 nM.
In the case of CC(O)c1ccc2c(c1)[C@]1(C)CCN(C(=O)c3ccc4nc[nH]c4c3)[C@H](C2)C1(C)C (stereo partly drawn) [Example 211, (3H-Benzoimidazol-5-yl)-[(2R,6S)-8-(1-hydroxy-ethyl)-6,11,11-trimethyl-1,2,5,6-tetrahydro-4H-2,6-methano-benzo[d]azocin-3-yl]-methanone], the IC50 was 31 nM.
Compound COC(=O)C12CCN(C(=O)c3ccc4nc[nH]c4c3)C(Cc3ccc(O)cc31)C2 (centres unmarked) [Example 212, 3-(3H-Benzoimidazole-5-carbonyl)-8-hydroxy-2,3,4,5-tetrahydro-1H-2,6-methano-benzo[d]azocine-6-carboxylic acid methyl ester] has an IC50 of 1940 nM.
